Test results published in BigSolDB 2.1.

Cn1cnc2c1c(=O)[nH]c(=O)n2C
Conditions | solubility (mole fraction)
in acetone, 288.13 K | 1.47e-05
in acetone, 297.99 K | 2.23e-05
in acetone, 308.08 K | 2.99e-05
in acetone, 318.07 K | 4.57e-05
in acetone, 328.17 K | 6.77e-05
in ethanol, 288.15 K | 1.38e-05
in ethanol, 298.2 K | 2.26e-05
in ethanol, 308.19 K | 3.85e-05
in ethanol, 318.16 K | 6.31e-05
in ethanol, 328.16 K | 0.000106
in ethyl acetate, 288.13 K | 1.04e-05
in ethyl acetate, 297.99 K | 1.59e-05
in ethyl acetate, 308.08 K | 2.28e-05
in ethyl acetate, 318.07 K | 3.33e-05
in ethyl acetate, 328.17 K | 4.94e-05
in methanol, 288.07 K | 2.82e-05
in methanol, 298.1 K | 4.34e-05
in methanol, 308.93 K | 7e-05
in methanol, 318.62 K | 0.00011
in methanol, 328.15 K | 0.000163
in n-propanol, 288.15 K | 1.18e-05
in n-propanol, 298.2 K | 2.06e-05
in n-propanol, 308.19 K | 3.71e-05
in n-propanol, 318.16 K | 6.37e-05
in n-propanol, 328.16 K | 0.000109
in water, 288.07 K | 3.09e-05
in water, 298.1 K | 4.73e-05
in water, 308.93 K | 6.93e-05
in water, 318.62 K | 0.0001
in water, 328.15 K | 0.000145

Cn1c(=O)c2[nH]cnc2n(C)c1=O
Conditions | solubility (mole fraction)
in acetone, 288.02 K | 0.000667
in acetone, 298.15 K | 0.00093
in acetone, 308.15 K | 0.00124
in acetone, 318.15 K | 0.00147
in acetone, 328.1 K | 0.0018
in ethanol, 288.01 K | 0.0008
in ethanol, 297.95 K | 0.00116
in ethanol, 308.01 K | 0.00173
in ethanol, 318.11 K | 0.00254
in ethanol, 328.09 K | 0.00319
in ethyl acetate, 288.02 K | 0.000502
in ethyl acetate, 298.15 K | 0.000673
in ethyl acetate, 308.15 K | 0.000901
in ethyl acetate, 318.15 K | 0.0011
in ethyl acetate, 328.1 K | 0.00141
in methanol, 288.06 K | 0.00077
in methanol, 298.16 K | 0.00137
in methanol, 308.16 K | 0.00217
in methanol, 318.13 K | 0.00298
in methanol, 328.19 K | 0.00394
in n-propanol, 288.01 K | 0.000912
in n-propanol, 297.95 K | 0.00136
in n-propanol, 308.01 K | 0.00204
in n-propanol, 318.11 K | 0.00313
in n-propanol, 328.09 K | 0.00423
in water, 288.06 K | 0.000325
in water, 298.16 K | 0.00063
in water, 308.16 K | 0.000991
in water, 318.13 K | 0.00141
in water, 328.19 K | 0.00216
